ChEMBL document CHEMBL1201862, “PubChem BioAssay data set” (2004)
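Results reflect a 48-hour exposure of cells in 96-well plates to compound at five concentrations. GI50 marks 50% less growth.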 Activity calls are given as the source filed them. Rule as the data show it: active = GI50 up to about 1.1 µM and inactive = higher.

Experiments:
Assay in all cases: DTP human tumour cell line panel, 48 h
RPMI-8226 = system: RPMI-8226
SK-MEL-28 = system: SK-MEL-28
MDA-N = system: MDA-N
HCT-116 = system: HCT-116
SF-295 = system: SF-295
HCT-15 = system: HCT-15
NCI-H460 = system: NCI-H460
MDA-MB-231 = system: MDA-MB-231
T47D = system: T47D
OVCAR-4 = system: OVCAR-4
HOP-92 = system: HOP-92
UACC-257 = system: UACC-257
RXF 393 = system: RXF 393
UACC-62 = system: UACC-62
SNB-19 = system: SNB-19
MOLT-4 = system: MOLT-4
BT-549 = system: BT-549
LOX IMVI = system: LOX IMVI
U-251 = system: U-251
OVCAR-3 = system: OVCAR-3

| SMILES | GI50 (RPMI-8226) | GI50 (SK-MEL-28) | GI50 (MDA-N) | GI50 (HCT-116) | GI50 (SF-295) | GI50 (HCT-15) [µM] | GI50 (NCI-H460) | GI50 (MDA-MB-231) | GI50 (T47D) | GI50 (OVCAR-4) | GI50 (HOP-92) | GI50 (UACC-257) | GI50 (RXF 393) | GI50 (UACC-62) | GI50 (SNB-19) | GI50 (MOLT-4) | GI50 (BT-549) | GI50 (LOX IMVI) | GI50 (U-251) | GI50 (OVCAR-3) |
| --- | --- | --- | --- | --- | --- | --- | --- | --- | --- | --- | --- | --- | --- | --- | --- | --- | --- | --- | --- | --- |
| O=C(O)CCSc1ncnc2[nH]cnc12 | > 100 µM (inactive) | > 100 µM (inactive) | > 100 µM (inactive) | > 100 µM (inactive) | > 100 µM (inactive) | > 100 | > 100 µM (inactive) | > 100 µM (inactive) | > 100 µM (inactive) | > 100 µM (inactive) | 27.1 µM (inactive) | > 100 µM (inactive) | > 100 µM (inactive) | > 100 µM (inactive) | > 100 µM (inactive) | > 100 µM (inactive) | > 100 µM (inactive) | > 100 µM (inactive) | > 100 µM (inactive) | > 100 µM (inactive) |
| O=C(O)C1C2C=CC(O2)C1C(=O)Nc1ncccn1 (stereo not given) | > 100 µM (inactive) | > 100 µM (inactive) | > 100 µM (inactive) | > 100 µM (inactive) | > 100 µM (inactive) | > 100 | > 100 µM (inactive) | > 100 µM (inactive) | > 100 µM (inactive) | > 100 µM (inactive) | > 100 µM (inactive) | > 100 µM (inactive) | > 100 µM (inactive) | > 100 µM (inactive) | > 100 µM (inactive) | > 100 µM (inactive) | > 100 µM (inactive) | > 100 µM (inactive) | > 100 µM (inactive) | > 100 µM (inactive) |
| NC(CC1=CS(=O)(=O)c2ccc(Cl)cc21)C(=O)O (stereo not given) | > 100 µM (inactive) | > 100 µM (inactive) | > 100 µM (inactive) | > 100 µM (inactive) | 83.6 µM (inactive) | > 100 | 89.9 µM (inactive) | > 100 µM (inactive) | > 100 µM (inactive) | > 100 µM (inactive) | > 100 µM (inactive) | 54.7 µM (inactive) | > 100 µM (inactive) | > 100 µM (inactive) | > 100 µM (inactive) | > 100 µM (inactive) | > 100 µM (inactive) | > 100 µM (inactive) | > 100 µM (inactive) | > 100 µM (inactive) |
| NCCN1C(=O)c2cc(Cl)c(Cl)cc2C1(O)c1ccc(Cl)cc1 (stereo not given) | 2.44 µM (inactive) | 1.75 µM (inactive) | 1.85 µM (inactive) | 1.72 µM (inactive) | 2.01 µM (inactive) | 2.4 | 1.79 µM (inactive) | 2.01 µM (inactive) | 2.11 µM (inactive) | 1.76 µM (inactive) | 2.91 µM (inactive) | 1.87 µM (inactive) | 1.59 µM (inactive) | 1.79 µM (inactive) | 2.82 µM (inactive) | 2.05 µM (inactive) | 3.62 µM (inactive) | 1.7 µM (inactive) | 1.74 µM (inactive) | 2.19 µM (inactive) |
| Cc1cc(S(=O)(=O)Nc2nc3ccccc3[nH]2)c(S)cc1Cl | 34.6 µM (inactive) | 27.4 µM (inactive) | > 100 µM (inactive) | 22.4 µM (inactive) | 53.1 µM (inactive) | > 100 | 32.7 µM (inactive) | 58.6 µM (inactive) | 41.4 µM (inactive) | 61.4 µM (inactive) | 62.5 µM (inactive) | > 100 µM (inactive) | > 100 µM (inactive) | 79.4 µM (inactive) | 72.3 µM (inactive) | 30.4 µM (inactive) | > 100 µM (inactive) | 19.3 µM (inactive) | 24.1 µM (inactive) | 49.2 µM (inactive) |
| CCOC(=O)c1cc2c(OC)cc(OC)cc2oc1=O | > 100 µM (inactive) | > 100 µM (inactive) | > 100 µM (inactive) | > 100 µM (inactive) | 50 µM (inactive) | > 100 | > 100 µM (inactive) | 35.9 µM (inactive) | > 100 µM (inactive) | > 100 µM (inactive) | 46.8 µM (inactive) | > 100 µM (inactive) | 57.3 µM (inactive) | > 100 µM (inactive) | 41.8 µM (inactive) | > 100 µM (inactive) | 76 µM (inactive) | 5.58 µM (inactive) | 37.7 µM (inactive) | > 100 µM (inactive) |
| Nc1nc(Cl)cc(NCC2(CO)CCCC2)n1 | > 100 µM (inactive) | > 100 µM (inactive) | > 100 µM (inactive) | > 100 µM (inactive) | > 100 µM (inactive) | > 100 | > 100 µM (inactive) | > 100 µM (inactive) | > 100 µM (inactive) | 19 µM (inactive) | 52.5 µM (inactive) | 65.8 µM (inactive) | > 100 µM (inactive) | > 100 µM (inactive) | > 100 µM (inactive) | > 100 µM (inactive) | > 100 µM (inactive) | 59.7 µM (inactive) | > 100 µM (inactive) | > 100 µM (inactive) |
| CC(C)=CCC[C@@H](C)C1=C(O)C(=O)C(C)=C(Nc2ccccc2Br)C1=O | 8.24 µM (inactive) | 14.4 µM (inactive) | 14.1 µM (inactive) | 18.1 µM (inactive) | 3.85 µM (inactive) | 6.65 | 13.4 µM (inactive) | 20.7 µM (inactive) | 13.8 µM (inactive) | 6.52 µM (inactive) | 11.6 µM (inactive) | 14.9 µM (inactive) | 14.3 µM (inactive) | 13.3 µM (inactive) | 16.4 µM (inactive) | 4.09 µM (inactive) | 14 µM (inactive) | 11.9 µM (inactive) | 8.91 µM (inactive) | 4.13 µM (inactive) |
| CSc1cc(-c2ccccn2)nc(-c2ccccn2)c1 | 0.383 µM (active) | 0.0736 µM (active) | 0.452 µM (active) | 0.0682 µM (active) | 0.0566 µM (active) | 0.0324 | 0.0541 µM (active) | 0.494 µM (active) | 0.346 µM (active) | 0.0828 µM (active) | 0.0959 µM (active) | 0.481 µM (active) | 0.255 µM (active) | 0.176 µM (active) | 0.564 µM (active) | 0.0421 µM (active) | 0.0536 µM (active) | 0.043 µM (active) | 0.0766 µM (active) | 0.0279 µM (active) |
| C=C1C[C@@H](O)[C@@H](Br)C(C)(C)[C@]12CCC(C)(Br)C(Cl)C2 (stereo not given in full) | 43.9 µM (inactive) | > 50 µM (inactive) | > 50 µM (inactive) | > 50 µM (inactive) | > 50 µM (inactive) | > 50 | > 50 µM (inactive) | > 50 µM (inactive) | > 50 µM (inactive) | > 50 µM (inactive) | > 50 µM (inactive) | > 50 µM (inactive) | > 50 µM (inactive) | > 50 µM (inactive) | > 50 µM (inactive) | > 50 µM (inactive) | > 50 µM (inactive) | > 50 µM (inactive) | > 50 µM (inactive) | > 50 µM (inactive) |
| O=C(CCl)Nc1ccc(-c2nc3ccccc3s2)cc1 | 2.26 µM (inactive) | 4.12 µM (inactive) | 2.49 µM (inactive) | 2.16 µM (inactive) | 6.92 µM (inactive) | 2.18 | 2.84 µM (inactive) | 3.07 µM (inactive) | 1.53 µM (inactive) | 3.37 µM (inactive) | 2.36 µM (inactive) | 5.66 µM (inactive) | 3.43 µM (inactive) | 2.22 µM (inactive) | 2.4 µM (inactive) | 1.74 µM (inactive) | 1.6 µM (inactive) | 0.847 µM (active) | 1.64 µM (inactive) | 1.82 µM (inactive) |
| Nc1ccc(C(=O)O)cc1.Nc1nc(N)c2nc[nH]c2n1 | 12.1 µM (inactive) | 33 µM (inactive) | 13.9 µM (inactive) | 15.2 µM (inactive) | 25 µM (inactive) | 28.8 | 21.6 µM (inactive) | 45.4 µM (inactive) | 3.27 µM (inactive) | 26.4 µM (inactive) | 79.3 µM (inactive) | 17.5 µM (inactive) | 12.1 µM (inactive) | 11.1 µM (inactive) | 40.7 µM (inactive) | 41.4 µM (inactive) | 78 µM (inactive) | 24.7 µM (inactive) | 43.9 µM (inactive) | 19.1 µM (inactive) |
| CC[C@@H]1CN2CCC1C[C@@H]2C(O)c1ccnc2ccc(OCCN3CCN(CCOc4ccc5nccc(C(O)[C@@H]6C[C@@H]7CCN6C[C@@H]7CC)c5c4)CC3)cc12 (stereo not given in full) | 2.59 µM (inactive) | 17.1 µM (inactive) | 12.9 µM (inactive) | 14.2 µM (inactive) | 16.3 µM (inactive) | 24.2 | 17.3 µM (inactive) | 15.9 µM (inactive) | 19.7 µM (inactive) | 19.8 µM (inactive) | 8.81 µM (inactive) | 16.1 µM (inactive) | 16.5 µM (inactive) | 16.1 µM (inactive) | 14.5 µM (inactive) | 6.53 µM (inactive) | 19.1 µM (inactive) | 14.8 µM (inactive) | 16.7 µM (inactive) | 19.6 µM (inactive) |
| C#C[C@@H](OC(=O)c1ccc([N+](=O)[O-])cc1)[C@@H]1C[C@H]2O[C@@H]([C@H](C/C=C/CC)OC(=O)c3ccc([N+](=O)[O-])cc3)C[C@H]2O1 | > 100 µM (inactive) | > 100 µM (inactive) | > 100 µM (inactive) | > 100 µM (inactive) | > 100 µM (inactive) | > 100 | > 100 µM (inactive) | > 100 µM (inactive) | > 100 µM (inactive) | > 100 µM (inactive) | > 100 µM (inactive) | > 100 µM (inactive) | > 100 µM (inactive) | > 100 µM (inactive) | > 100 µM (inactive) | > 100 µM (inactive) | > 100 µM (inactive) | > 100 µM (inactive) | > 100 µM (inactive) | > 100 µM (inactive) |
